Results from article PMC6272913, “Synthesis of Bioactive 2-(Arylamino)thiazolo[5,4-f]-quinazolin-9-ones via the Hügershoff Reaction or Cu- Catalyzed Intramolecular C-S Bond Formation” (Molecules, 2016).
“And” between values parts separate entries of the source, which are not always exact repeats. Equal values may be shown once. Read-outs that look alike come from different tables or passages of the source.

Tests used:
[1] = target: GSK-3α/β; test: GSK-3α/β in vitro kinase assay (GS-1 peptide); type: biochemical, Porcine; conditions: 15 μM ATP, 30 min at 30 °C, triplicate; >10 = less than 50% inhibition at 10 µM
[2] = target: T1, CDK5/p25 (Homo sapiens, UniProt Q00535); test: CDK5/p25 in vitro kinase assay (histone H1, [γ-33P] ATP); type: biochemical
T1 construct: made in house
T1 sequence (Q00535 whole entry): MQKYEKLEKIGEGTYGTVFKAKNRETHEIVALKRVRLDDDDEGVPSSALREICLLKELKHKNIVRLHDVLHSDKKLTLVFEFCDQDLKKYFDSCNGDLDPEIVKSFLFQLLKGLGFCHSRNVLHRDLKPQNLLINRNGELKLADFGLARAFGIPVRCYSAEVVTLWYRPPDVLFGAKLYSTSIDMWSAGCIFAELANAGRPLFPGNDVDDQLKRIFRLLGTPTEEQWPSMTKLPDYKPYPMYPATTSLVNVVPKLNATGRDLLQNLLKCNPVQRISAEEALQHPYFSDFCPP
T1 sequence (Q15078 99-307 partner limits assumed): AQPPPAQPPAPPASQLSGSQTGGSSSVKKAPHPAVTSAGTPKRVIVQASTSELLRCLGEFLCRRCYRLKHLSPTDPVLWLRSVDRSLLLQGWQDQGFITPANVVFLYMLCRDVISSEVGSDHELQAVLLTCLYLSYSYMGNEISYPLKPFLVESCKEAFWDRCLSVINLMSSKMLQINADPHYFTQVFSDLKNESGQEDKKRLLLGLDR

[3] = target: DYRK1A (Rattus norvegicus, UniProt Q63470); test: DYRK1A in vitro kinase assay (Woodtide); type: biochemical; conditions: 15 μM ATP, 30 min at 30 °C, triplicate; >10 = less than 50% inhibition at 10 µM
[4] = target: CK1δ/ε; test: CK1δ/ε in vitro kinase assay (CK1-specific peptide substrate); type: biochemical, Porcine; conditions: 15 μM ATP, 30 min at 30 °C, triplicate; >10 = less than 50% inhibition at 10 µM
[5] = target: CLK1 (Homo sapiens, UniProt P49759); test: CLK1 in vitro kinase assay (RS peptide); type: biochemical; conditions: 15 μM ATP, 30 min at 30 °C, triplicate; >10 = less than 50% inhibition at 10 µM
CLK1, sequence (P49759 whole entry): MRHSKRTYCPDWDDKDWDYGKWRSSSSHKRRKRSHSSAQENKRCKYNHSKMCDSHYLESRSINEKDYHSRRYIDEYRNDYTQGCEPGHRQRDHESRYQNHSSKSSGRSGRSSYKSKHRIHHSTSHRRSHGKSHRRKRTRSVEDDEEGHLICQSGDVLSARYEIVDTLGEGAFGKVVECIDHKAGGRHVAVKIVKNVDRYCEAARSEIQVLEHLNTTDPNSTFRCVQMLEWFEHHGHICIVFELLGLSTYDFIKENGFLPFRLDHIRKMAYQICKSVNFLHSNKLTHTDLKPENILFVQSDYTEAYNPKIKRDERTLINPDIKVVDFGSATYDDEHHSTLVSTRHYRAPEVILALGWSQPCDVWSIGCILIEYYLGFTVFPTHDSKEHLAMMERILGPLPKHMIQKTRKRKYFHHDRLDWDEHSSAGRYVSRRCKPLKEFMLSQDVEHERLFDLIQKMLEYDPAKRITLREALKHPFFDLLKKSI

[6] = 15 μM ATP, 30 min at 30 °C, triplicate, >10 = less than 50% inhibition at 10 µM

| Molecule | IC50 [1] | IC50 [2, 6] | IC50 [3] | IC50 [4] | IC50 [5] | IC50 [2] |
| --- | --- | --- | --- | --- | --- | --- |
| O=c1c2c(ccc3nc(Nc4ccccc4)sc32)ncn1C1CC1 [Compound 8a, 8-Cyclopropyl-2-(phenylamino)thiazolo[5,4-f]quinazolin-9(8H)-one] | ≥ 10 µM | – | > 10 µM | > 10 µM | 3400 nM | > 10 µM |
| CN(C)CCNc1nc2ccc3ncn(C4CC4)c(=O)c3c2s1 [Compound 14b, 8-Cyclopropyl-2-([2-(dimethylamino)ethyl]amino)thiazolo[5,4-f]quinazolin-9(8H)-one] | ≥ 10 µM | – | > 10 µM | > 10 µM | > 10000 nM | > 10 µM |
| 8-Cyclopropyl-2-(piperidin-1-yl)thiazolo[5,4-f]quinazolin-9(8H)-one [Compound 14f] | ≥ 10 µM | > 10 µM | > 10 µM | > 10 µM | > 10000 nM | – |
| COc1ccc2c(c1)[nH]c1c(C)nccc12 [Harmine, reference compound] | > 10 µM | – | – | 1.5 µM | – | – |
| O=c1c2c(ccc3nc(Nc4cccnc4)sc32)ncn1C1CC1 [Compound 8g, 8-Cyclopropyl-2-(pyridin-3-ylamino)thiazolo[5,4-f]quinazolin-9(8H)-one] | ≥ 10 µM | – | > 10 µM | > 10 µM | 1700 nM | > 10 µM |
| O=c1c2c(ccc3nc(NCCN4CCCCC4)sc32)ncn1C1CC1 [Compound 14c, 8-Cyclopropyl-2-([2-(piperidin-1-yl)ethyl]amino)thiazolo[5,4-f]quinazolin-9(8H)-one] | ≥ 10 µM | > 10 µM | > 10 µM | > 10 µM | > 10000 nM | – |
| O=c1c2c(ccc3nc(NCCN4CCOCC4)sc32)ncn1C1CC1 [Compound 14d, 8-Cyclopropyl-2-[(2-morpholinoethyl)amino]thiazolo[5,4-f]quinazolin-9(8H)-one] | ≥ 10 µM | – | 8.2 µM | > 10 µM | 8100 nM | > 10 µM |
| COc1cc2nc(Nc3ccc4ncn(C5CC5)c(=O)c4c3)sc2cc1OC [Compound 10l, 3-Cyclopropyl-6-((5,6-dimethoxybenzo[d]thiazol-2-yl)amino)quinazolin-4(3H)-one] | ≥ 10 µM | – | > 10 µM | > 10 µM | > 10000 nM | > 10 µM |
| O=c1c2cc(Nc3nc4ccccc4s3)ccc2ncn1C1CC1 [Compound 10a, 3-Cyclopropyl-6-[(benzo[d]thiazol-2-yl)amino]quinazolin-4(3H)-one] | ≥ 10 µM | – | 4.8 µM | > 10 µM | 5200 nM | > 10 µM |
| O=c1c2c(ccc3nc(N4CCCCC4)sc32)ncn1C1CC1 [Compound 14e, 8-Cyclopropyl-2-(piperidin-1-yl)thiazolo[5,4-f]quinazolin-9(8H)-one] | ≥ 10 µM | – | > 10 µM | > 10 µM | 5300 nM | > 10 µM |
| O=c1c2c(ccc3nc(NCc4ccccc4)sc32)ncn1C1CC1 [Compound 14a, 2-(Benzylamino)-8-cyclopropylthiazolo[5,4-f]quinazolin-9(8H)-one] | > 10 µM | – | > 10 µM | > 10 µM | 3400 nM | > 10 µM |
| CN(C)c1ccc(Nc2nc3ccc4ncn(C5CC5)c(=O)c4c3s2)cc1 [Compound 8j, 8-Cyclopropyl-2-([4-(dimethylamino)phenyl]amino)thiazolo[5,4-f]quinazolin-9(8H)-one] | – | – | 1.3 to 7.3 µM and 2 µM | > 10 µM | 1300 to 7300 nM and 1300 nM | > 10 µM |

Next, values leading:

| IC50 [1] | IC50 [2, 6] | IC50 [3] | IC50 [4] | IC50 [5] | IC50 [2] | Molecule |
| --- | --- | --- | --- | --- | --- | --- |
| 0.23 µM | > 10 µM | 0.14 µM | 1.9 µM | 380 nM | – | N=C(c1nc2ccc3ncn(C4CC4)c(=O)c3c2s1)N1CCOCC1 [Compound 17e, 8-Cyclopropyl-2-[imino(morpholino)methyl]thiazolo[5,4-f]quinazolin-9(8H)-one] |
| 0.4 µM | – | 0.67 µM | > 10 µM | 1000 nM | > 10 µM | N=C(NCc1ccccc1)c1nc2ccc3ncn(C4CC4)c(=O)c3c2s1 [Compound 17a, N-Benzyl-8-cyclopropyl-9-oxo-8,9-dihydrothiazolo[5,4-f]quinazoline-2-carboximidamide] |
| 2.8 µM | – | 3.2 µM | > 10 µM | 2300 nM | > 10 µM | N/C(=N\CCN1CCOCC1)c1nc2ccc3ncn(C4CC4)c(=O)c3c2s1 [Compound 17c, (Z)-8-Cyclopropyl-N′-(2-morpholinoethyl)-9-oxo-8,9-dihydrothiazolo[5,4-f]quinazoline-2-carboximidamide] |
| 3.9 µM | – | 2.9 µM | > 10 µM | 2100 nM | > 10 µM | N/C(=N\CCN1CCCCC1)c1nc2ccc3ncn(C4CC4)c(=O)c3c2s1 [Compound 17d, (Z)-8-Cyclopropyl-9-oxo-N′-[2-(piperidin-1-yl)ethyl]-8,9-dihydrothiazolo[5,4-f]quinazoline-2-carboximidamide] |
| 1.1 µM | – | 4.4 µM | > 10 µM | 290 nM | > 10 µM | CN(C)CC/N=C(\N)c1nc2ccc3ncn(C4CC4)c(=O)c3c2s1 [Compound 17b, (Z)-8-Cyclopropyl-N′-[2-(dimethylamino)ethyl]-9-oxo-8,9-dihydrothiazolo[5,4-f]quinazoline-2-carboximidamide] |
| 0.49 µM | > 10 µM | 0.82 µM | > 10 µM | 610 nM | – | N=C(c1nc2ccc3ncn(C4CC4)c(=O)c3c2s1)N1CCCCC1 [Compound 17f, 8-Cyclopropyl-2-[imino(piperidin-1-yl)methyl]thiazolo[5,4-f]quinazolin-9(8H)-one] |
